# Assay results reported in patent US20250115612A1, “CERTAIN 2,5-DIAZABICYCLO[4.2.0]OCTANES AND OCTAHYDROFURO[3,4-B]PYRAZINES AS GLP-1 RECEPTOR MODULATORS” (ASTRAZENECA AB, priority 2021, published 2025).
# Assays:
# human GLP-1R receptor = target: T1, human GLP-1R receptor (Homo sapiens, UniProt P43220, L260F); experiment: CHOK1 GLP-1R cAMP assay (HTRF); format: cell-based; settings: CHO-K1 cells stably expressing human GLP-1R
# T1 construct: expressed in transfected cells; host or cells: CHO-K1 (ATCC CCL-61)
# Protocol: A cell line stably expressing the human GLP-1R receptor (NM_002062.5, including the naturally-occurring variant Leu260Phe) in a CHO-K1 (ATCC® CCL-61™) was used for assay.
# GLP-1 receptor mediated agonist activity was determined in a cell-based assay measuring cyclic adenosine monophosphate (cAMP) levels in cells using Homogeneous Time-Resolved Fluorescence (HTRF) cAMP detection kit (CisBio catalog #62AM4PEC, cAMP Gs Dynamic range kit). The cAMP detection method is based on a competitive immunoassay, in which cAMP produced by the cells and cAMP labeled with the dye d2 compete for binding to a Europium-Cryptate-labeled anti-cAMP antibody. The specific HTRF signal is inversely proportional to the concentration of cAMP.
# Compounds were added to individual well in 384 well-assay plates (Greiner #784076) using an Echo (LabCyte) dispenser from 10 mM stocks. Varying concentration of compounds were added to wells, and DMSO was used to normalize each well to a volume of 100 nL. A dose response curve of GLP-1(7-36)NH2 (Bachem H-6795) was included in each run. 5 μL of cAMP concentration response standards are applied in specified wells in the assay plates. Cryo-preserved cells are thawed and resuspended in assay buffer pre-heated to 37° C. (20 mM 2-[4-(2-hydroxyethyl)piperazin-1-yl]ethanesulfonic acid (HEPES) pH 7.4, lx Hank's Balanced Salt Solution (HBSS, Life Technologies #14065) supplemented with 0.1% (w/v) bovine serum albumin (Sigma, A-7030)). Cells were centrifuged at 250*g for 5 min at rt, and resuspended in room tempered assay buffer to a final density of 0.16*10^6 cell/mL, to deliver 800 cells/well. 5 μL of assay buffer with 1 mM 3-isobutyl-1-methylxanthin (IBMX; Sigma cat I-7018) was dispensed per well in assay plates using a multidrop combi (Thermo Scientific) subsequently 5 μL of cell suspension was distributed to relevant wells in the assay using a multidrop dispenser. Assay plates were incubated 20 min at rt.
# Detection reagents, Europium-Cryptate-labeled anti-cAMP antibody and cAMP labeled with the dye d2, are diluted in lysis buffer, provided by the manufacturer. 5 μL of each detection reagent is supplemented to each assay well using a multidrop dispenser. Assay plates are incubated in the dark for at least one h. The HTRF signal is measured using the HTRF module (excitation: 337 nm, emission A: 665 nm and emission B: 620 nm) in Pherastar FSX (BMG Labtech).
# Raw data were converted to pM cAMP using the cAMP standard curve included in each run. Converted data were further analyzed in Genedata Screener (Genedata) and EC50 determinations were made from agonist dose-response curves analyzed with a curve fitting program using a 4-parameter logistic dose response equation (Equation y=A+((B−A)/1+((C/x)^D))) where A is no stimulation, B is full stimulation, C is the EC50 and D is the Hill slope). The percent effect was determined relative to a saturating concentration of a full GLP-1R agonist (GLP-1(7-36)NH2 has 100% effect in this assay setup).
# GLP-1R = target: T2, GLP-1R (Homo sapiens, UniProt P43220); experiment: EndoC cAMP accumulation assay (HTRF, EndoC-βH1 cells); format: cell-based; settings: EndoC-βH1 human pancreatic β cell line
# T2 construct: host or cells: EndoC-βH1
# Excerpt: EndoC cAMP Accumulation Assay
# A HTRF cAMP assay (cAMP Gs dynamic kit; CisoBio Cat #62AM4PEJ) was used to identify agonists of GLP-1R in a pancreatic insulinoma cell line (EndoC-PH1). […] EndoC-βH1 cells have detectable GLP-1R messenger ribonucleic acid (mRNA) as detected by quantitative polymerase chain reaction (qPCR). […] The EndoC-βH1 cell line is a valid model of human beta cells and applicable for screenings to identify novel drug target candidates (Mol. Metab., 2018, 8, 144-157). CisBio HTRF cAMP kits are based on a competitive immunoassay using cryptate-labelled anti-cAMP antibody and d2-labeled cAMP. The detection kit is intended for the direct quantitative determination of cAMP. The specific signal (i.e. energy transfer) is inversely proportional to the concentration of cAMP in the standard or sample. Test compounds (10 mM in DMSO) were diluted into assay buffer (HBSS (Sigma #H8264) supplemented with 25 mM HEPES (Gibco #15630, pH 7.4), 0.1% BSA (Sigma #A3059) and 0.5 mM IBMX (Sigma #I7018) included fresh on the day of the assay) into 96 well U-bottom plates (Greiner #650201). Diluted compounds were transferred to ECHO source polypropelene plates (Labcyte #P-05525) and dose response curves were dispensed acoustically using ECHO 550 into black shallow-well u-bottom 384-well HTRF Assay Plates (Corning 4514).
# Cryovials of EndoC-H1 (supplied at 1×10e^7 cells/vial) were used directly for screening. The cryovials and were removed from N2(l) and thawed rapidly in a 37° C. water bath. The cells were resuspended in assay buffer and centrifuged at 300 g for 5 min. Cells were resuspended in assay buffer at the appropriate concentration, typically at 12e5 cells per mL (3000 cells per well, dependent on cell batch) and 2.5 μL diluted cells were added to all wells of destination plate by Multidrop combi reagent dispenser (Thermofisher). The plates were incubated at rt for 30 min. The assay was stopped by adding 2.5 μL anti-cAMP cryptate solution to all wells and 2.5 μL cAMP-d2 solution (both diluted 1:20 in lysis buffer) to columns 1-22 by Combi drop. A volume of 2.5 μL cAMP-d2 solution was added to wells E23 to P24 and 2.5 μL lysis buffer added to wells A23 to D24 by multichannel pipette. The plates were incubated at rt for 1 h and read on an Envision plate reader using excitation wavelength of 320 nm and emission of 590 nm and 660 nm.
# Raw data from Envision is converted to % DeltaF according to the manufacturer's instructions. Dose response curves are analysed via 4-Parameter Logistical Analysis and assay plate Z′ values obtained. Samples are graphed as percentage (%) activation plots compared to GIP (1-42, Bachem H-5645) with assay window defined by negative control as basal cell cAMP levels and positive control are defined by maximum GIP (82.5 nM) signal. GLP-1 (7-36 amide, Bachem H-6795) dose response curve was included on all plates.
# T2 sequence (P43220 24-463): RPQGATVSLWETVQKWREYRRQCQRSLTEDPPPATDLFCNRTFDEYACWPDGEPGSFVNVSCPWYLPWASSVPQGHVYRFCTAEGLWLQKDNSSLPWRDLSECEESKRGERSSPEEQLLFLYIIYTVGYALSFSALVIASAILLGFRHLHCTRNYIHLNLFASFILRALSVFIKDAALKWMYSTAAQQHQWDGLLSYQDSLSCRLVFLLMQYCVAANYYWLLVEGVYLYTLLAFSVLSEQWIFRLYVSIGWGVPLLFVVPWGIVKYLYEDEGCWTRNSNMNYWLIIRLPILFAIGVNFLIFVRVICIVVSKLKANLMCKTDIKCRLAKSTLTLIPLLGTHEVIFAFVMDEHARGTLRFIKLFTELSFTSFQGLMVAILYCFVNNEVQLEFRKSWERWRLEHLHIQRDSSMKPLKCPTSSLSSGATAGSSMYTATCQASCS
# T1 sequence (P43220 24-463 L260F): as the sequence (P43220 24-463) above, with L237F counted along it
Structure (SMILES),EC50 (human GLP-1R receptor),EC50 (GLP-1R)
"N#Cc1ccc(COc2cccc(N3CCN(Cc4nc5ccc(C(=O)O)c(Cl)c5n4C[C@@H]4CCO4)[C@H]4CC[C@H]43)n2)c(F)c1 (single isomer, unassigned) [Example 8a]",6.1 nM,28 nM
"O=C(O)c1ccc2nc(CN3CCN(c4cccc(OCc5ccc(Cl)cc5F)n4)[C@@H]4COC[C@@H]43)n(C[C@@H]3CCO3)c2c1 (racemic) [Example 15, 2-(((4aRS,7aSR)-4-(6-((4-Chloro-2-fluorobenzyl)oxy)pyridin-2-yl)hexahydrofuro[3,4-b]pyrazin-1(2H)-yl)methyl)-1-(((S)-oxetan-2-yl)methyl)-1H-benzo[d]imidazole-6-carboxylic acid]",3.3 nM,14 nM
"N#Cc1ccc(COc2cccc(N3CCN(Cc4nc5ccc(C(=O)O)c(Cl)c5n4C[C@@H]4CCO4)[C@H]4CC[C@H]43)n2)c(F)c1 (single isomer, unassigned) [Example 8b]",28 nM,41 nM
"Cc1ccnc(Cn2c(CN3CCN(c4cccc(OCc5ccc(C#N)cc5F)n4)[C@@H]4CC[C@@H]43)nc3ccc(C(=O)O)cc32)c1 (racemic) [Example 14, rac-2-(((1R,6S)-5-(6-((4-Cyano-2-fluorobenzyl)oxy)pyridin-2-yl)-2,5-diazabicyclo[4.2.0]octan-2-yl)methyl)-1-((4-methylpyridin-2-yl)methyl)-1H-benzo[d]imidazole-6-carboxylic acid]",400 nM,2800 nM
"N#Cc1ccc(COc2cccc(N3CCN(Cc4nc5ccc(C(=O)O)c(Cl)c5n4C[C@@H]4CCO4)[C@H]4CC[C@H]43)n2)c(F)c1 (single isomer, unassigned) [Example 8c]",140 nM,620 nM
"Cc1cc(Cn2c(CN3CCN(c4cccc(OCc5ccc(C#N)cc5F)n4)[C@@H]4CC[C@@H]43)nc3ccc(C(=O)O)cc32)no1 (racemic) [Example 13, rac-2-(((1R,6S)-5-(6-((4-Cyano-2-fluorobenzyl)oxy)pyridin-2-yl)-2,5-diazabicyclo[4.2.0]octan-2-yl)methyl)-1-((5-methylisoxazol-3-yl)methyl)-1H-benzo[d]imidazole-6-carboxylic acid]",110 nM,100 nM
"O=C(O)c1ccc2nc(CN3CCN(c4cccc(OCc5ccc(Cl)cc5F)n4)[C@@H]4COC[C@@H]43)n(Cc3cccnc3)c2c1 (single isomer, unassigned) [Example 21]",74 nM,71 nM
"O=C(O)c1ccc2nc(CN3CCN(c4cccc(OCc5ccc(Cl)cc5F)n4)[C@@H]4COC[C@@H]43)n(Cc3cocn3)c2c1 (single isomer, unassigned) [Example 20]",35 nM,37 nM
"N#Cc1ccc(COc2cccc(N3CCN(Cc4nc5ccc(C(=O)O)cc5n4C[C@@H]4CCO4)[C@H]4CC[C@H]43)n2)c(F)c1 (single isomer, unassigned) [Example 2b, 2-(((1R*,6S*)-5-(6-((4-Cyano-2-fluorobenzyl)oxy)pyridin-2-yl)-2,5-diazabicyclo[4.2.0]octan-2-yl)methyl)-1-(((S)-oxetan-2-yl)methyl)-1H-benzo[d]imidazole-6-carboxylic acid]",17 nM,32 nM
"N#Cc1ccc(COc2cccc(N3CCN(Cc4nc5ccc(C(=O)O)cc5n4C[C@@H]4CCO4)[C@H]4CC[C@H]43)n2)c(F)c1 (single isomer, unassigned) [Example 2a, 2-(((1R*,6S*)-5-(6-((4-Cyano-2-fluorobenzyl)oxy)pyridin-2-yl)-2,5-diazabicyclo[4.2.0]octan-2-yl)methyl)-1-(((S)-oxetan-2-yl)methyl)-1H-benzo[d]imidazole-6-carboxylic acid]",1.2 nM,4.1 nM
"Cc1nccn1CCn1c(CN2CCN(c3cccc(OCc4ccc(Cl)cc4F)n3)[C@@H]3COC[C@@H]32)nc2c(Cl)cc(C(=O)O)cc21 (single isomer, unassigned) [Example 24]",250 nM,340 nM

# The next lines start with the values.
EC50 (human GLP-1R receptor),EC50 (GLP-1R),Structure (SMILES)
110 nM,89 nM,"O=C(O)c1cc(F)c2nc(CN3CCN(c4cccc(OCc5ccc(Cl)cc5F)n4)[C@@H]4COC[C@@H]43)n(C[C@H]3CCOC3)c2c1 (single isomer, unassigned) [Example 18a]"
8.9 nM,16 nM,"CCn1cncc1Cn1c(CN2CCN(c3cccc(OCc4ccc(Cl)cc4F)n3)[C@H]3CC[C@@H]32)nc2c(OC)cc(C(=O)O)cc21 (single isomer, unassigned) [Example 12b]"
57 nM,15 nM,"O=C(O)c1cc(F)c2nc(CN3CCN(c4cccc(OCc5ccc(Cl)cc5F)n4)[C@@H]4COC[C@@H]43)n(C[C@H]3CCOC3)c2c1 (single isomer, unassigned) [Example 18b]"
1 nM,6.6 nM,"O=C(O)c1cc(Cl)c2nc(CN3CCN(c4cccc(OCc5ccc(Cl)cc5F)n4)[C@@H]4COC[C@@H]43)n(C[C@@H]3CCO3)c2c1 (single isomer, unassigned) [Example 22a, 4-Chloro-2-(((4aR*,7aS*)-4-(6-((4-chloro-2-fluorobenzyl)oxy)pyridin-2-yl)hexahydrofuro[3,4-b]pyrazin-1(2H)-yl)methyl)-1-(((S)-oxetan-2-yl)methyl)-1H-benzo[d]imidazole-6-carboxylic acid]"
